Experimental data published in patent publication US20250040543A1, “Preservative Composition” (ARXADA AG, priority 2021, published 2025).

How the values were obtained:
[1] = test system: Aspergillus brasiliensis ATCC 16404; experiment: Preservation efficacy test in sterile distilled water, drop plate; format: cell-based; details: 7 days
Description: In the following example, the following test organisms were used: • Pseudomonas aeruginosa ATCC 9027 • Aspergillus brasiliensis ATCC 16404 [table] Mould strain spores were harvested (sterile distilled water+0.05% polysorbate 80) and treated to remove fungal hyphae. Mould strain spores were prepared in diluent (sterile distilled water) to obtain a final concentration of […]. [table] […] Each sample was inoculated at t=0 with a known concentration of micro-organism. Each inoculated sample was then mixed until a homogenous mixture was obtained. […] The solution was left for 15 minutes. Subsequent dilutions were prepared by serial dilution of 0.1 ml into 0.9 ml of neutralising broth. Bacteria were serially diluted to 10^−4, Fungi were serially diluted to 10^−3. Each serial dilution was thoroughly mixed and 25 μl drops were aliquoted onto the surface of pre-prepared agar plates. Plates were prepared in sextupicate for each sample dilution. The agar plates were allowed to dry, then inverted and incubated under conditions appropriate for the test microorganisms. CFU/ml was calculated taking into account dilution factors. […] The lower and upper limits for drop plating were only employed on the highest and lowest dilution factor plates.

[2] = test system: Candida albicans; experiment: MIC and Synergy Index (Kull) of two-component compositions; format: cell-based
Description: A wide range of concentrations were tested against Pseudomonas aeruginosa, Staphylococcus aureus, Escherichia coli, and Candda albicans.
The lowest concentration of each mixture or single compound which prevents an observable level of growth was determined to be the minimum inhibitory concentration (MIC) value.
Serial dilutions of each mixture or single compound were prepared. Micro-organisms were inoculated into media: Nutrient Broth (bacteria) or Malt Extract Broth (yeast). The final concentrations of micro-organisms in media was approximately 10^5-6 CFU/ml. The inoculated media was introduced to each of the serial dilutions at a 1:1 ratio, and incubated at 30±1° C. for 24-48 hours.
The MICs for each mixture was compared with the MIC of each single compound alone.
In this study the end point is measured by the MIC.

CCCCOC(=O)CCC(C)=O [Butyl Levulinate, butyl levulinate]
Log reduction ([1]; pH 7, Butyl Levulinate 500 ppm, IPBC 0 ppm): 0.61 | Log reduction ([1]; pH 7, Butyl Levulinate 500 ppm, Potassium Sorbate 0 ppm): 0.10 | Log reduction ([1]; pH 7, Butyl Levulinate 500 ppm, Sodium Benzoate 0 ppm): 1.90 | Log reduction ([1]; pH 7, Butyl Levulinate 1000 ppm, IPBC 0 ppm): 0.60 | Log reduction ([1]; pH 7, Butyl Levulinate 1000 ppm, Potassium Sorbate 0 ppm): 0.10 | Log reduction ([1]; pH 7, Butyl Levulinate 1000 ppm, Sodium Benzoate 0 ppm): 1.82 | Log reduction ([1]; pH 7, Butyl Levulinate 1500 ppm, IPBC 0 ppm): 0.74 | Log reduction ([1]; pH 7, Butyl Levulinate 1500 ppm, Potassium Sorbate 0 ppm): 0.31 | Log reduction ([1]; pH 7, Butyl Levulinate 1500 ppm, Sodium Benzoate 0 ppm): 1.85 | Log reduction ([1]; pH 7, Butyl Levulinate 2000 ppm, IPBC 0 ppm): 0.70 | Log reduction ([1]; pH 7, Butyl Levulinate 2000 ppm, Potassium Sorbate 0 ppm): −0.01 | Log reduction ([1]; pH 7, Butyl Levulinate 2000 ppm, Sodium Benzoate 0 ppm): 2.01 | Log reduction ([1]; pH 7, Butyl Levulinate 2500 ppm, IPBC 0 ppm): 0.72 | Log reduction ([1]; pH 7, Butyl Levulinate 2500 ppm, Potassium Sorbate 0 ppm): 0.18 | Log reduction ([1]; pH 7, Butyl Levulinate 2500 ppm, Sodium Benzoate 0 ppm): 1.80 | Log reduction ([1]; pH 8, Butyl Levulinate 500 ppm, Sodium Benzoate 0 ppm): 0.64 | Log reduction ([1]; pH 8, Butyl Levulinate 1000 ppm, Sodium Benzoate 0 ppm): 0.36 | Log reduction ([1]; pH 8, Butyl Levulinate 1500 ppm, Sodium Benzoate 0 ppm): 0.36 | Log reduction ([1]; pH 8, Butyl Levulinate 2000 ppm, Sodium Benzoate 0 ppm): 0.38 | Log reduction ([1]; pH 8, Butyl Levulinate 2500 ppm, Sodium Benzoate 0 ppm): 0.33 | MIC ([2]; Candida albicans, butyl levulinate alone, or its concentration in the mixture with Sodium benzoate, read-out: MIC (ppm) to inhibit growth: Butyl levulinate): 6250 µg/mL | MIC (ppm) to inhibit growth: Butyl levulinate ([2]; butyl levulinate alone, or its concentration in the mixture with BIT): 6250 ppm | MIC (ppm) to inhibit growth: Butyl levulinate ([2]; butyl levulinate alone, or its concentration in the mixture with DHA): 6250 ppm | MIC (ppm) to inhibit growth: Butyl levulinate ([2]; butyl levulinate alone, or its concentration in the mixture with HPNO): 6250 ppm | MIC (ppm) to inhibit growth: Butyl levulinate ([2]; butyl levulinate alone, or its concentration in the mixture with PHMB): 6250 ppm | MIC (ppm) to inhibit growth: Butyl levulinate ([2]; butyl levulinate alone, or its concentration in the mixture with Potassium Sorbate): 6250 ppm | MIC (ppm) to inhibit growth: Butyl levulinate ([2]; butyl levulinate alone, or its concentration in the mixture with Sodium pyrithione): 6250 ppm
